In ChEMBL document CHEMBL1201862, “PubChem BioAssay data set” (2004) one finds AC50 and IC50 data, which are given here for five compounds.

Calls of active or inactive are those of the source.

The first test has as its target T1, Replicative DNA helicase DnaB (Mycobacterium tuberculosis, UniProt P9WMR3).
T1 sequence (P9WMR3 whole entry): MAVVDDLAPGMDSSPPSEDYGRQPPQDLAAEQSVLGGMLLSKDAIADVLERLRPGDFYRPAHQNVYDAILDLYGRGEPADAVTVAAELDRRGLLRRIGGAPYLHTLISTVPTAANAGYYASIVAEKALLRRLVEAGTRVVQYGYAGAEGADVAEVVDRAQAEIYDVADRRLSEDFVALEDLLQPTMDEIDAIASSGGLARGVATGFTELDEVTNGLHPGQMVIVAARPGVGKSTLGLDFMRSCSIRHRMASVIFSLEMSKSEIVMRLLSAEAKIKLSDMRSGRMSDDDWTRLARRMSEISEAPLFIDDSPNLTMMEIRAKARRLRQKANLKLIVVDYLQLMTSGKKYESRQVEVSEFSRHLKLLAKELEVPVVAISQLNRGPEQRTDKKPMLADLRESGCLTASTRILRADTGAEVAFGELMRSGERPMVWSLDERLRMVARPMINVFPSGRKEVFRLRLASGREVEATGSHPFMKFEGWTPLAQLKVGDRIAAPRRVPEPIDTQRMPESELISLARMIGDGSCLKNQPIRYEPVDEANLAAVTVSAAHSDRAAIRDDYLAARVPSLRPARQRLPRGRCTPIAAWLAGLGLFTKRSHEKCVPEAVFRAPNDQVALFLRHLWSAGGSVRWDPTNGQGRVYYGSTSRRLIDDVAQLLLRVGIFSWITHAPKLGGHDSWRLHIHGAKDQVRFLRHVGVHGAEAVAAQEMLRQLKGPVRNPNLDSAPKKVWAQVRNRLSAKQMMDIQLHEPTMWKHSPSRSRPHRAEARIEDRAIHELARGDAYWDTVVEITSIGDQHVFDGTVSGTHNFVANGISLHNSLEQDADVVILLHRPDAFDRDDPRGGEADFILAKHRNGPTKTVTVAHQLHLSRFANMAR
In words: DnaB intein splicing inhibitors, dose response, biochemical, cell-free fluorescence (AID 449749). It counts as functional.
On to `COC(CNC(=O)c1ccc2c3c(onc13)-c1ccccc1C2=O)OC`, for which the AC50 is 3.06 µM (active). Still for that read-out and setting: the result for `COC(=O)[C@@H]1[C@@H](C(=O)OC)C2(c3ccccc3-c3ccccc32)N(c2ccc(Cl)cc2)N1C#N` reads > 120 µM (inactive); that for `COc1ccc(OC)c(Nc2cc3ccccc3c(O)n2)c1`, > 120 µM (inconclusive); that for `Nc1ccc2c(c1)C(=O)C(=O)c1ccccc1-2`, 5.32 µM (active).

Another test concerns the target T2, Hexokinase HKDC1 (Homo sapiens, UniProt Q2TB90).
T2 sequence (Q2TB90 whole entry): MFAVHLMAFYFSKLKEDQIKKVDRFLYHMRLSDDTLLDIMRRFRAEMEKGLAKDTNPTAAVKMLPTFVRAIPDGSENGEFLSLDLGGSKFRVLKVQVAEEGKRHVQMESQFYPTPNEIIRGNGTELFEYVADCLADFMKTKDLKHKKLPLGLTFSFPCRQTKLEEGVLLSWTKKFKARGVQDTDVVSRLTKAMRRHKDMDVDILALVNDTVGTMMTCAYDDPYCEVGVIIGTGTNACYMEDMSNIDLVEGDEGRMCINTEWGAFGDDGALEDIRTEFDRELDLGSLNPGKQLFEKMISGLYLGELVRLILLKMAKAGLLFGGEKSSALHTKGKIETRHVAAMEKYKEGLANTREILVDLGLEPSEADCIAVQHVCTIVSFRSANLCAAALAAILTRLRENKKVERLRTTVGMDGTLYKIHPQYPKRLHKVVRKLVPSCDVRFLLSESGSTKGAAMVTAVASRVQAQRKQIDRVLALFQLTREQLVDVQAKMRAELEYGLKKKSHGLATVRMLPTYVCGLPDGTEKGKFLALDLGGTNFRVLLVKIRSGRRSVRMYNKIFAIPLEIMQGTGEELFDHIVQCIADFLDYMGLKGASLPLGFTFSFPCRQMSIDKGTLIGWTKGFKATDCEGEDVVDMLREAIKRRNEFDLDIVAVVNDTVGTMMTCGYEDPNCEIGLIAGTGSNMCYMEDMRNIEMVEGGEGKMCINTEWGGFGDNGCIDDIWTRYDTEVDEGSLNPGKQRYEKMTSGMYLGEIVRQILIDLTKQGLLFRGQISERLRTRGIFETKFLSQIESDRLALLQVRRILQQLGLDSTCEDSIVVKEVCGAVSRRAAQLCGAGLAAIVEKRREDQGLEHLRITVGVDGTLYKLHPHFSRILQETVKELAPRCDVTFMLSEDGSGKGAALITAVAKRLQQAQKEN
In words: HKDC1 hexokinase inhibitors, dose response, biochemical, W721R variant (AID 504729). The class given is functional.
Turning to `COC(=O)[C@@H]1[C@@H](C(=O)OC)C2(c3ccccc3-c3ccccc32)N(c2ccc(Cl)cc2)N1C#N`, the IC50 is 20.4 µM (inactive). Same read-out and setting: the result for `O=C(O)c1ccc(NC2=C/C(=N/S(=O)(=O)c3ccccc3)c3ccccc3C2=O)cc1` reads 2.74 µM (active).

The term AC50 denotes the concentration giving half of the maximal activity seen. As a reminder, the IC50 is the concentration that inhibits the measured activity by half.
